Assay results taken from patent US20250236600A1, “SUBSTITUTED VINYL PIPERAZINE-PIPERIDINE UREA DERIVATIVES AS ANTICANCER AGENTS” (UNIVERSITA' DEGLI STUDI DI PAVIA, priority 2021, published 2025).
Entries after “also recorded” stand apart in the source; their conditions may differ.

Legend:
U87-MG cells [1] = experiment: Scratch wound healing cell migration assay; format: cell-based, Human; conditions: 1-10 μM, 24 hours, FIG. 9
Experimental: FIG. 9 represent cell migration assays on U87-MG cells.
The scratch wound healing assay evaluates the ability of cells to close a manually created gap on the cell monolayer in vitro. This assay is indicative of cell motility and the ability of cells to propagate locally.
Cells were seeded in 6-well plates and were incubated until reaching confluence. At this point, using a plastic tip, a scratch was manually created on the surface of the cell monolayer. Culture medium was then replaced with fresh medium with or without treatments. Cells were treated with increasing concentrations of the compounds (1-10 μM). Micrographs were taken immediately after the scratch (t0) and 24 hours later (t24). The area of the scratch was measured using ImageJ software and cell migration area was calculated by subtracting the t24 area from the t0 area.
(§1) Statistical analysis of the data obtained was performed using the one-way analysis of variance (ANOVA) and the Dunnet's post-hoc test. Values of p<0.01 (**) were considered statistically significant.
The results, expressed as the mean±standard deviation, represents the percentage of the cell migration area compared to untreated control (arbitrarily set to 100%).

[2] = test system: dorsal root ganglia (DRG); experiment: NGF-induced neurite outgrowth of DRG organotypic cultures (neurotoxic effect); format: cell-based, embryonic Sprague-Dawley rats; conditions: for neurotoxicity in vitro (result in words): concentrations = IC20, IC50, IC80 of U87-MG SRB assay, neurotoxic if neurites length less than 50% of control
Experimental: Evaluation of NGF-induced neurite outgrowths was performed on dorsal root ganglia (DRG) of 15-day-old embryonic Sprague-Dawley rats. Briefly, DRG were aseptically collected and plated onto collagen coated dishes. DRG were cultured in AN2 medium supplemented with 5 ng/mL NGF in a 5% CO2 humidified incubator at 37° C. DRG were treated after 2 hours with increasing concentrations of compounds, corresponding to IC20, IC50 and IC80 in U87-MG SRB assay. Micrographs of DRG were taken after 24 and 72 hours of treatment and neurite elongation was manually measured using ImageJ software.
(§2) Statistical analysis of the data obtained was performed using the ANOVA and the Dunnet's post-hoc test. Values of p<0.01 (**) were considered statistically significant.
The results, expressed as the mean±standard deviation, represents the percentage of neurite outgrowth compared to untreated control (arbitrarily set to 100%).
According to this method of in vitro neurotoxicity evaluation, a compound can be considered neurotoxic if neurites length is less than 50% of the control.

RPMI 8226 cells [3] = experiment: Boyden chamber cell invasion, RPMI 8226; format: cell-based, Human; conditions: RPMI 8226, treated at IC20 of SRB assay, 24 hours; for cell invasion compared to untreated control: control = 100%; for cell invasion (result in words): FIG. 10B
Experimental: (§3) Cell invasion is evaluated by Boyden Chamber. In Boyden chamber, cells attracted by a chemoattractant pass through a porous membrane coated with gelatine. This in vitro assay is indicative of the ability of cells to cross an extracellular substrate and invade surrounding tissues. U87-MG and RPMI cells were resuspended in FBS-free medium, with or without treatments. IC20 obtained in SRB assay was used as compound treatment concentration, in order to not affect the invasion results with a too high mortality. 5×10^3 cells/well were seeded in the upper compartment of the Boyden chamber. In the lower compartment a complete medium supplemented with 10% FBS was placed. FBS was used as chemoattractant. Between the two compartments, a gelatine coated polycarbonate membrane with 8 μm pores was placed. The Boyden chamber, thus set up, was placed at 37° C. in an incubator for 24 hours (RPMI 8226 cells) or for 16 hours (U87-MG cells). After incubation membrane was removed and cells on the lower surface of the membrane were fixed and stained with Diffquick staining kit. Micrographs were taken and cells were counted using ImageJ software.
as §2
(§4) The results, expressed as the mean±standard deviation, represents the percentage of cells that are able to pass through the membrane compared to untreated control (arbitrarily set to 100%).

U87-MG cells [4] = experiment: Boyden chamber cell invasion, U87-MG; format: cell-based, Human; conditions: treated at IC20 of SRB assay, 16 hours, FIG. 10A
Experimental: as §3, §2, §4

RPMI 8226 cells [5] = experiment: Sulforhodamine B (SRB) cell viability assay, RPMI 8226; format: cell-based, Human; conditions: RPMI 8226, SRB assay, 24 hours; for IC20 / IC50: Homo sapiens
Text: (§5) Sulforhodamine B (SRB) assay was used to evaluate RPMI 8226 cell viability in vitro. It is a widely used method to evaluate cell viability and cytotoxicity. This method relies on the property of SRB, which binds stoichiometrically to proteins under mild acidic conditions. Thus, the amount of bound dye can be used as measure of cell proliferation.
(§6) Human RPMI 8226 and U87-MG cells were growth in culture medium (DMEM low glucose for U87-MG and RPMI 1640 for RPMI 8226), supplemented with 10% fetal bovine serum, 1% L-glutamine, 1% penicillin and streptomycin. Cells were maintained in a humidified incubator at 37° C. and 5% CO2. For SRB assay, 1×10^4/well cells were seeded in a 96-well plate and were treated with increasing concentrations of the compounds (1-20 μM). After 24 hours, cells were fixed with 10% trichloroacetic acid and were stained with SRB solution. Excess of dye was removed by washing with 1% acetic acid. The protein-bound dye was then dissolved in 10 mM Tris base solution and absorbance was measured at 510 nm using a microplate reader.
as §1
(§7) The results, expressed as the mean±standard deviation, represents the percentage of viable cells compared to untreated control (arbitrarily set to 100%).
(§8) FIG. 7 represents the results obtained in U87-MG cells after treatment with compound 26 (A), 27 (B), 28 (C) 29 (D) and 30 (E). FIG. 8 represents the results obtained for RPMI 8226 cells after treatment with compound 26 (A), 27 (B), 28 (C) 29 (D) and 30 (E). Cells were treated for 24 hours with increasing concentrations of compounds (1, 5, 10 and 20 μM).

Proteasome [6] = experiment: Proteasome activity (7-Amido-4-Methylcoumarin fluorescent probe) in RPMI 8226 cells; format: cell-based, Human; conditions: RPMI 8226, treated at IC50 of SRB assay, 24 hours
Experimental: (§9) Proteasome is a cellular complex responsible for the degradation of a high amount of regulatory, misfolded or damaged intracellular proteins. It is considered an important target for anticancer therapy. Proteasome activity was evaluated by 7-Amido-4-Methylcoumarin fluorescent probe. U87-MG and RPMI 8226 cells were cultured in 6 well-plates at 25×10^4 cells/well density and were treated with IC50 concentration of each compound (calculated in SRB assay). After 24 hours of treatment, cells were collected and total protein extracts were obtained. Lysis buffer (5 mM Hepes pH 7.5, 150 mM NaCl, 10% glycerol, 1% Triton X100, 1.5 mM MgCl2, 5 mM EGTA) was […] with proteases and phosphatases inhibitors. Protein content was quantified using Bradford method. 40 μg of proteins were mixed with proteasome buffer (250 mM Hepes pH 7.5, 5 mM EDTA, 0.5% NP-40, 0.01% SDS) and 2.2 mM 7-Amido-4-Methylcoumarin. After 2 hours of incubation at 37° C., fluorescence was quantified in a microplate reader (excitation 380 nm, emission 460 nm). Statistical analysis of the data obtained was performed using the ANOVA and the Dunnet's post-hoc test. Values of p<0.01 (**) were considered statistically significant. The results, expressed as the mean±standard deviation, represents the percentage of proteasome activity compared to untreated control (arbitrarily set to 100%).

U87-MG cells [7] = experiment: Sulforhodamine B (SRB) cell viability assay, U87-MG; format: cell-based; conditions: Homo sapiens, U-87 MG, 24 hours
Text: as §5, §6, §1, §7, §8

Proteasome [8] = experiment: Proteasome activity (7-Amido-4-Methylcoumarin fluorescent probe) in U87-MG cells; format: cell-based, Human; conditions: treated at IC50 of SRB assay, 24 hours; for proteasome inhibition: FIG. 11A
Experimental: as §9

Compound | cell migration (result in words) (U87-MG cells [1]) | neurite length, percentage of untreated control ([2]; rat DRG, all evaluated concentrations) | neurotoxicity in vitro (result in words) ([2]; rat DRG, 24 and 72 hours) | cell invasion compared to untreated control (RPMI 8226 cells [3]) [%] | cell invasion (result in words) (U87-MG cells [4]) | IC20 (RPMI 8226 cells [5]) [µM] | IC50 (RPMI 8226 cells [5]) [µM] | IC80 (RPMI 8226 cells [5]) [µM] | proteasome inhibition (result in words) (Proteasome [6]) | IC50 (U87-MG cells [7]) [µM] | proteasome inhibition (result in words) (Proteasome [8]) | cell invasion (result in words) (RPMI 8226 cells [3]) | proteasome inhibition (Proteasome [8]) [%] | concentration up to which not neurotoxic ([2]; rat DRG neurite outgrowth, 24 and 72 hours)
COc1ccc2cc(/C(C)=C/CN3CCN(C(=O)Nc4c(F)cccc4F)CC3)ccc2c1 [Compound 30, (E)-N-(2,6-difluorophenyl)-4-(3-(6-methoxynaphthalen-2-yl)but-2-en-1-yl)piperazine-1-carboxamide] | strong cell migration inhibitors | higher than 50% | not neurotoxic in vitro; also recorded: not neurotoxic at all evaluated concentrations | ~80 | not effective | 7.3 ± 0.1 | 4.5 ± 0.2 | 2.9 ± 0.1 | only a weak inhibitory effect | 12.2 ± 0.3 |  |  |  | 
C/C(=C\CN1CCN(C(=O)Nc2ccc(C)cc2)CC1)c1ccc2ccccc2c1 [Compound 28, (E)-4-(3-(naphthalen-2-yl)but-2-en-1-yl)-N-(p-tolyl)piperazine-1-carboxamide] | strong cell migration inhibitors |  | not neurotoxic at all evaluated concentrations and time points |  | very effective in reducing cell invasion; also recorded: significantly able of inhibiting the invasion | 7.1 ± 0.6 | 3.7 ± 0.6 | 1.9 ± 0.5 | able of inhibiting the proteasome activity | 10.8 ± 1.8 | able of inhibiting the proteasome activity | statistically significant, however lower than the one obtained in U87-MG cells |  | 
C/C(=C\CN1CCN(C(=O)NC2CCCCC2)CC1)c1ccc2ccccc2c1 [Compound 27, (E)-N-cyclohexyl-4-(3-(naphthalen-2-yl)but-2-en-1-yl)piperazine-1-carboxamide] | strong cell migration inhibitors |  | not neurotoxic at all evaluated concentrations and time points | ~80 | weak effect against cell invasion | 9.5 ± 3.7 | 6.4 ± 0.3 | 4.2 ± 2.1 | not an inhibitory effect | 10 ± 0.5 |  |  |  | 
COc1ccc2cc(/C(C)=C/CN3CCN(C(=O)Nc4ccc(C(F)(F)F)cc4)CC3)ccc2c1 [Compound 29, (E)-4-(3-(6-methoxynaphthalen-2-yl)but-2-en-1-yl)-N-(4-(trifluoromethyl)phenyl)piperazine-1-carboxamide] | strong cell migration inhibitors |  | not neurotoxic at all evaluated concentrations and time points |  | reduced cell invasion, but it was less effective than compound 28; also recorded: significantly able of inhibiting the invasion | 8.1 ± 0.3 | 4.8 ± 0.1 | 2.9 ± 0.1 | only a weak inhibitory effect; also recorded: only weak inhibitory activity | 7.1 ± 0.1 | only a weak inhibitory effect; also recorded: only weak inhibitory activity | statistically significant, however lower than the one obtained in U87-MG cells | ~50 | 
C/C(=C\CN1CCN(C(=O)NC2CCCC2)CC1)c1ccc2ccccc2c1 [Compound 26, (E)-N-cyclopentyl-4-(3-(naphthalen-2-yl)but-2-en-1-yl)piperazine-1-carboxamide] | weak ability to reduce migration |  | at the highest concentration evaluated it was found to be neurotoxic | ~80 | weak effect against cell invasion | 22.6 ± 2 | 7.9 ± 0.7 | 3.9 ± 1.2 | able of inhibiting the proteasome activity | 13.3 ± 0.6 | able of inhibiting the proteasome activity |  | ~50 | up to 13 μM
